Source: PubChem BioAssay (NCI)
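Tested at 5 concentrations; 48 h exposure; 96-well plates; endpoints linearly interpolated, else capped at highest concentration. TGI is the concentration that stops growth completely.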

Columns and labels:
Assay in all cases: inhibition of tumour cell growth, NCI panel, 48 h
[1] = system: 786-0 renal
[2] = system: A498 renal
[3] = system: A549 NSCLC
[4] = system: ACHN renal
[5] = system: CAKI-1 renal
[6] = system: CCRF-CEM leukemia
[7] = system: COLO 205 colon
[8] = system: DMS 114 small cell lung
[9] = system: DMS 273 small cell lung
[10] = system: EKVX NSCLC
[11] = system: HCC-2998 colon
[12] = system: HCT-116 colon
[13] = system: HCT-15 colon
[14] = system: HL-60(TB) leukemia
[15] = system: HOP-62 NSCLC
[16] = system: HT29 colon
[17] = system: IGROV1 ovarian
[18] = system: K-562 leukemia
[19] = system: KM12 colon
[20] = system: KM20L2 colon
[21] = system: LOX IMVI melanoma
[22] = system: M14 melanoma
[23] = system: MALME-3M melanoma
[24] = system: MOLT-4 leukemia
[25] = system: NCI-H226 lung
[26] = system: NCI-H23 lung
[27] = system: NCI-H460 lung
[28] = system: NCI-H522 lung
[29] = system: OVCAR-3 ovarian
[30] = system: OVCAR-4 ovarian
[31] = system: OVCAR-5 ovarian
[32] = system: OVCAR-8 ovarian
[33] = system: RPMI-8226 leukemia
[34] = system: RXF 393 renal
[35] = system: SF-268 CNS
[36] = system: SF-295 CNS
[37] = system: SF-539 CNS
[38] = system: SK-MEL-2 melanoma
[39] = system: SK-MEL-28 melanoma
[40] = system: SK-MEL-5 melanoma
[41] = system: SN12C renal
[42] = system: SNB-19 CNS
[43] = system: SNB-75 CNS
[44] = system: SNB-78 CNS
[45] = system: SR leukemia
[46] = system: SW-620 colon
[47] = system: TK-10 renal
[48] = system: U251 CNS
[49] = system: UACC-257 melanoma
[50] = system: UACC-62 melanoma
[51] = system: UO-31 renal
[52] = system: BT-549 breast
[53] = system: DU-145 prostate
[54] = system: HOP-92 NSCLC
[55] = system: HS 578T breast
[56] = system: MCF7 breast
[57] = system: MDA-MB-231 breast
[58] = system: MDA-MB-435
[59] = system: MDA-N
[60] = system: NCI/ADR-RES ovarian
[61] = system: PC-3 prostate
[62] = system: SK-OV-3 ovarian
[63] = system: T-47D breast

CN(C)C(=S)/N=c1\ss/c(=N\C(=S)N(C)C)n1-c1cccc(Cl)c1 was tested, and the TGI [1] was > 100 µM, the TGI [2] was > 100 µM and the TGI [3] was > 100 µM. The TGI [4] was > 100 µM, the TGI [5] was > 100 µM and the TGI [6] was > 100 µM. For the same compound, the TGI [7] was > 100 µM, the TGI [8] was > 100 µM and the TGI [9] was > 100 µM. For the same compound, the TGI [10] was > 100 µM, the TGI [11] was > 100 µM and the TGI [12] was > 100 µM. For the same compound, the TGI [13] was > 100 µM, the TGI [14] was > 100 µM and the TGI [15] was > 100 µM. The TGI [16] was > 100 µM, the TGI [17] was > 100 µM and the TGI [18] was > 100 µM. For the same compound, the TGI [19] was > 100 µM, the TGI [20] was > 100 µM and the TGI [21] was > 100 µM. The TGI [22] was > 100 µM, the TGI [23] was > 100 µM and the TGI [24] was > 100 µM. For the same compound, the TGI [25] was > 100 µM, the TGI [26] was > 100 µM and the TGI [27] was > 100 µM. For the same compound, the TGI [28] was > 100 µM, the TGI [29] was > 100 µM and the TGI [30] was > 100 µM. The TGI [31] was > 100 µM, the TGI [32] was > 100 µM and the TGI [33] was > 100 µM. For the same compound, the TGI [34] was > 100 µM, the TGI [35] was > 100 µM and the TGI [36] was > 100 µM. For the same compound, the TGI [37] was > 100 µM, the TGI [38] was > 100 µM and the TGI [39] was > 100 µM. The TGI [40] was > 100 µM, the TGI [41] was > 100 µM and the TGI [42] was > 100 µM. For the same compound, the TGI [43] was > 100 µM, the TGI [44] was > 100 µM and the TGI [45] was > 100 µM. The TGI [46] was > 100 µM, the TGI [47] was > 100 µM and the TGI [48] was > 100 µM. For the same compound, the TGI [49] was > 100 µM, the TGI [50] was > 100 µM and the TGI [51] was > 100 µM.
In the case of NC(=O)[C@H](Cc1ccc(O)cc1)Nc1c(O)c2c(c(O)c1Cl)C(=O)C=CC2=O, the TGI [1] is reported as 4.62 µM, the TGI [2] is reported as > 10 µM and the TGI [3] is reported as > 10 µM. The TGI [4] was 6.61 µM, the TGI [52] was 5.26 µM and the TGI [5] was 5.18 µM. The TGI [6] was 1.04 µM, the TGI [7] was 3.36 µM and the TGI [53] was > 10 µM. The TGI [10] was > 10 µM, the TGI [11] was > 3.16 µM and the TGI [12] was 3.27 µM. The TGI [13] was 3.89 µM, the TGI [14] was 3.19 µM and the TGI [15] was > 10 µM. The TGI [54] was 4.72 µM, the TGI [55] was > 9.16 µM and the TGI [16] was 6.2 µM. The TGI [17] was 4.66 µM, the TGI [18] was 5.37 µM and the TGI [19] was > 6.81 µM. The TGI [21] was > 4.65 µM, the TGI [22] was > 7 µM and the TGI [23] was 3.78 µM. It also gave a TGI [56] of 2.97 µM, a TGI [57] of 5.23 µM and a TGI [58] of 4 µM. The TGI [59] was 4.1 µM, the TGI [24] was 2.43 µM and the TGI [25] was > 10 µM. For the same compound, the TGI [26] was > 8.2 µM, the TGI [27] was > 10 µM and the TGI [28] was 4.01 µM. For the same compound, the TGI [60] was > 7.25 µM, the TGI [29] was > 5.74 µM and the TGI [30] was 3.41 µM. The TGI [31] was > 10 µM, the TGI [32] was > 6.26 µM and the TGI [61] was 5.85 µM. The TGI [33] was 7 µM, the TGI [34] was 9.56 µM and the TGI [35] was > 10 µM. The TGI [36] was > 10 µM, the TGI [37] was 5.28 µM and the TGI [38] was > 10 µM. For the same compound, the TGI [39] was 4.64 µM, the TGI [40] was 3.04 µM and the TGI [62] was > 10 µM. For the same compound, the TGI [41] was > 6.94 µM, the TGI [42] was > 10 µM and the TGI [43] was > 10 µM. For the same compound, the TGI [45] was 5.26 µM, the TGI [46] was 2.82 µM and the TGI [63] was 5.27 µM. For the same compound, the TGI [47] was > 6.51 µM, the TGI [48] was > 8.11 µM and the TGI [49] was > 10 µM. The TGI [50] was 4.29 µM and the TGI [51] was > 6.36 µM.
